Here are results for seven compounds from ChEMBL document CHEMBL2406999, “Vialinin A is a ubiquitin-specific peptidase inhibitor” (Bioorg Med Chem Lett, 2013).

Active and inactive are the calls of the source. The rule behind the calls is not given here. Square brackets hold non-standard residues; d marks the D form. Peptide text beside a SMILES is read from it. * marks the point of attachment. Nle = CCCC[C@H](N)C(=O)O; Cbz = O=C(OCc1ccccc1)*

Test [1] concerns the target T1, Ubiquitin carboxyl-terminal hydrolase 4 (Homo sapiens) (UniProt Q13107).
T1 sequence (whole entry): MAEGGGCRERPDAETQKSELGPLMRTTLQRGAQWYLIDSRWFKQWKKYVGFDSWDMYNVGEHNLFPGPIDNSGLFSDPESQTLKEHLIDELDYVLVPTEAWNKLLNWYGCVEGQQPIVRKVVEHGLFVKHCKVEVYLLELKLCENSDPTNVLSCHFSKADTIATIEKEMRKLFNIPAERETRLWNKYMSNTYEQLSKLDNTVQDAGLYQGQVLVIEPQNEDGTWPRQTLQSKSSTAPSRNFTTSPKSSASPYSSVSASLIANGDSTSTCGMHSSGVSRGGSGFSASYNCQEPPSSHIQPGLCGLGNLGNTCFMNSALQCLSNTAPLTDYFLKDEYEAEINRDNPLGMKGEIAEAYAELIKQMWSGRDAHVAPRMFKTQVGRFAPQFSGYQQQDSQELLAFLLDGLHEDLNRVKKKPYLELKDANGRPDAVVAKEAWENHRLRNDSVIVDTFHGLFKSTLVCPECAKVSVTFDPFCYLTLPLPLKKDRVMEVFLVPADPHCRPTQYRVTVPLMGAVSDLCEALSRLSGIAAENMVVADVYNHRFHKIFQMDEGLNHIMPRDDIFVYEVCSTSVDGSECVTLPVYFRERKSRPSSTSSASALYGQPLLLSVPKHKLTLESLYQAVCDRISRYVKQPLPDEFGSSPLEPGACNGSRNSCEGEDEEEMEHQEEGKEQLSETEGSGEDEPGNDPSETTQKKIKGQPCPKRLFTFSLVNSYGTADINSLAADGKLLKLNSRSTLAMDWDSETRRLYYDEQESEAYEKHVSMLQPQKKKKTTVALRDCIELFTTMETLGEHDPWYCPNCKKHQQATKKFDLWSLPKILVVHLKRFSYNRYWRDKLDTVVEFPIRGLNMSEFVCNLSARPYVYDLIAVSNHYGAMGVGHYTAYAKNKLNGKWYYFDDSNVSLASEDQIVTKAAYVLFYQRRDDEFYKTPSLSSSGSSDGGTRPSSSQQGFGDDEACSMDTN
Kind of test: Inhibition of human USP4 using Ub-AMC as substrate at 1 to 20 uM after 10 mins by fluorometric analysis.

In test [2] the target is T2, Ubiquitin carboxyl-terminal hydrolase 5 (Homo sapiens) (UniProt P45974).
T2 sequence (whole entry): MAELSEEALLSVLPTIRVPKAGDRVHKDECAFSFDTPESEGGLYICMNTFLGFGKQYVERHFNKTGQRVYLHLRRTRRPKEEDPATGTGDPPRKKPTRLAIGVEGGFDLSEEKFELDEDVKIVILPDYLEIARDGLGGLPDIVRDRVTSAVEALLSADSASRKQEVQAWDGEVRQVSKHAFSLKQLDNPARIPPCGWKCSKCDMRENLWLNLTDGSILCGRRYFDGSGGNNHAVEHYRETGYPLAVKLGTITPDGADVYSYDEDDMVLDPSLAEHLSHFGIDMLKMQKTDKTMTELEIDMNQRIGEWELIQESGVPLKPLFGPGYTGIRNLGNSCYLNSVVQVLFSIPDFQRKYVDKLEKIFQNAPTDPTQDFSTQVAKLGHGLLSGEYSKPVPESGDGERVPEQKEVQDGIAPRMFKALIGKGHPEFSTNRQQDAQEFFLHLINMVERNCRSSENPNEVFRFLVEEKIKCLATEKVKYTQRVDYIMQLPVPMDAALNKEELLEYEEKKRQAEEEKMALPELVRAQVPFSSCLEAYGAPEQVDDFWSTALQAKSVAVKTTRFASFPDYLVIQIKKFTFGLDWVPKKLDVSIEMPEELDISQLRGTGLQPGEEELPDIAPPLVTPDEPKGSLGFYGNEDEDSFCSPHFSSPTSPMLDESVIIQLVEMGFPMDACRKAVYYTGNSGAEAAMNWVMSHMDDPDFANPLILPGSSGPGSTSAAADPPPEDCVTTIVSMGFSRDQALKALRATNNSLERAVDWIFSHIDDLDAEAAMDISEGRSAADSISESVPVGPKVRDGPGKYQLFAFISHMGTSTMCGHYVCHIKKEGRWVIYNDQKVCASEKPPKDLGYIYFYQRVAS
Put plainly: Inhibition of wild type human USP5 expressed in Escherichia coli BL21(DE3) using K48-linked tetraubiquitin as substrate assessed as substrate hydrolysis at 20 uM after 15 mins by SDS-PAGE analysis.

Test [3] addresses Ubiquitin carboxyl-terminal hydrolase isozyme L1 (Homo sapiens) (UniProt P09936). Kind of test: Inhibition of human UCH-L1 using Ub-AMC as substrate at 1 to 20 uM after 10 mins by fluorometric analysis.
The target in test [4] is T2, Ubiquitin carboxyl-terminal hydrolase 5 (Homo sapiens). Put plainly: Competitive binding affinity to human recombinant USP5 after 1 hr by SDS-PAGE analysis in presence of biotin-DMT.
Test [5] has the same target. Put plainly: Inhibition of human USP5 using Ub-AMC as substrate at 1 to 20 uM after 10 mins by fluorometric analysis.
Test [6] has the same target. Kind of test: Binding affinity to human recombinant USP5 by SDS-PAGE analysis.
Test [7] has the same target. Put plainly: Inhibition of human USP5 using Ub4 as substrate at 50 uM after 10 mins by SDS-PAGE analysis.
The target in test [8] is T3, Ubiquitin carboxyl-terminal hydrolase 5 (Homo sapiens, UniProt P45974).
T3 sequence (P45974 whole entry): T2 sequence (whole entry)
Kind of test: Inhibition of USP5 in human Z138 cells after 1 hr by immunoblotting analysis. The class given is cell-based. In general terms: A western blot detects proteins with antibodies after separation by electrophoresis.

Test [9] has as its target T4, Ubiquitin carboxyl-terminal hydrolase isozyme L1 (Homo sapiens, UniProt P09936).
T4 sequence (P09936 whole entry): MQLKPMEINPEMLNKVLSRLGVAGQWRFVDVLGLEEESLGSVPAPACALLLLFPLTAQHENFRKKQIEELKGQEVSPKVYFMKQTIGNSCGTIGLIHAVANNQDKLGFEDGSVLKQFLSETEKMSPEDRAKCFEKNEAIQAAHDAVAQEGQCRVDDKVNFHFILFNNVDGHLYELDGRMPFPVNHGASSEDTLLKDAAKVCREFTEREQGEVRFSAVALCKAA
Put plainly: Inhibition of UCH-L1 in human Z138 cells after 1 hr by immunoblotting analysis. The class given is cell-based.

For test [10], the target named is Ubiquitin carboxyl-terminal hydrolase 9X (Homo sapiens, UniProt Q93008). Kind of test: Inhibition of USP9x in human Z138 cells after 1 hr by immunoblotting analysis. The class given is cell-based.
Chain of Ubiquitin carboxyl-terminal hydrolase 9X (Q93008 whole entry): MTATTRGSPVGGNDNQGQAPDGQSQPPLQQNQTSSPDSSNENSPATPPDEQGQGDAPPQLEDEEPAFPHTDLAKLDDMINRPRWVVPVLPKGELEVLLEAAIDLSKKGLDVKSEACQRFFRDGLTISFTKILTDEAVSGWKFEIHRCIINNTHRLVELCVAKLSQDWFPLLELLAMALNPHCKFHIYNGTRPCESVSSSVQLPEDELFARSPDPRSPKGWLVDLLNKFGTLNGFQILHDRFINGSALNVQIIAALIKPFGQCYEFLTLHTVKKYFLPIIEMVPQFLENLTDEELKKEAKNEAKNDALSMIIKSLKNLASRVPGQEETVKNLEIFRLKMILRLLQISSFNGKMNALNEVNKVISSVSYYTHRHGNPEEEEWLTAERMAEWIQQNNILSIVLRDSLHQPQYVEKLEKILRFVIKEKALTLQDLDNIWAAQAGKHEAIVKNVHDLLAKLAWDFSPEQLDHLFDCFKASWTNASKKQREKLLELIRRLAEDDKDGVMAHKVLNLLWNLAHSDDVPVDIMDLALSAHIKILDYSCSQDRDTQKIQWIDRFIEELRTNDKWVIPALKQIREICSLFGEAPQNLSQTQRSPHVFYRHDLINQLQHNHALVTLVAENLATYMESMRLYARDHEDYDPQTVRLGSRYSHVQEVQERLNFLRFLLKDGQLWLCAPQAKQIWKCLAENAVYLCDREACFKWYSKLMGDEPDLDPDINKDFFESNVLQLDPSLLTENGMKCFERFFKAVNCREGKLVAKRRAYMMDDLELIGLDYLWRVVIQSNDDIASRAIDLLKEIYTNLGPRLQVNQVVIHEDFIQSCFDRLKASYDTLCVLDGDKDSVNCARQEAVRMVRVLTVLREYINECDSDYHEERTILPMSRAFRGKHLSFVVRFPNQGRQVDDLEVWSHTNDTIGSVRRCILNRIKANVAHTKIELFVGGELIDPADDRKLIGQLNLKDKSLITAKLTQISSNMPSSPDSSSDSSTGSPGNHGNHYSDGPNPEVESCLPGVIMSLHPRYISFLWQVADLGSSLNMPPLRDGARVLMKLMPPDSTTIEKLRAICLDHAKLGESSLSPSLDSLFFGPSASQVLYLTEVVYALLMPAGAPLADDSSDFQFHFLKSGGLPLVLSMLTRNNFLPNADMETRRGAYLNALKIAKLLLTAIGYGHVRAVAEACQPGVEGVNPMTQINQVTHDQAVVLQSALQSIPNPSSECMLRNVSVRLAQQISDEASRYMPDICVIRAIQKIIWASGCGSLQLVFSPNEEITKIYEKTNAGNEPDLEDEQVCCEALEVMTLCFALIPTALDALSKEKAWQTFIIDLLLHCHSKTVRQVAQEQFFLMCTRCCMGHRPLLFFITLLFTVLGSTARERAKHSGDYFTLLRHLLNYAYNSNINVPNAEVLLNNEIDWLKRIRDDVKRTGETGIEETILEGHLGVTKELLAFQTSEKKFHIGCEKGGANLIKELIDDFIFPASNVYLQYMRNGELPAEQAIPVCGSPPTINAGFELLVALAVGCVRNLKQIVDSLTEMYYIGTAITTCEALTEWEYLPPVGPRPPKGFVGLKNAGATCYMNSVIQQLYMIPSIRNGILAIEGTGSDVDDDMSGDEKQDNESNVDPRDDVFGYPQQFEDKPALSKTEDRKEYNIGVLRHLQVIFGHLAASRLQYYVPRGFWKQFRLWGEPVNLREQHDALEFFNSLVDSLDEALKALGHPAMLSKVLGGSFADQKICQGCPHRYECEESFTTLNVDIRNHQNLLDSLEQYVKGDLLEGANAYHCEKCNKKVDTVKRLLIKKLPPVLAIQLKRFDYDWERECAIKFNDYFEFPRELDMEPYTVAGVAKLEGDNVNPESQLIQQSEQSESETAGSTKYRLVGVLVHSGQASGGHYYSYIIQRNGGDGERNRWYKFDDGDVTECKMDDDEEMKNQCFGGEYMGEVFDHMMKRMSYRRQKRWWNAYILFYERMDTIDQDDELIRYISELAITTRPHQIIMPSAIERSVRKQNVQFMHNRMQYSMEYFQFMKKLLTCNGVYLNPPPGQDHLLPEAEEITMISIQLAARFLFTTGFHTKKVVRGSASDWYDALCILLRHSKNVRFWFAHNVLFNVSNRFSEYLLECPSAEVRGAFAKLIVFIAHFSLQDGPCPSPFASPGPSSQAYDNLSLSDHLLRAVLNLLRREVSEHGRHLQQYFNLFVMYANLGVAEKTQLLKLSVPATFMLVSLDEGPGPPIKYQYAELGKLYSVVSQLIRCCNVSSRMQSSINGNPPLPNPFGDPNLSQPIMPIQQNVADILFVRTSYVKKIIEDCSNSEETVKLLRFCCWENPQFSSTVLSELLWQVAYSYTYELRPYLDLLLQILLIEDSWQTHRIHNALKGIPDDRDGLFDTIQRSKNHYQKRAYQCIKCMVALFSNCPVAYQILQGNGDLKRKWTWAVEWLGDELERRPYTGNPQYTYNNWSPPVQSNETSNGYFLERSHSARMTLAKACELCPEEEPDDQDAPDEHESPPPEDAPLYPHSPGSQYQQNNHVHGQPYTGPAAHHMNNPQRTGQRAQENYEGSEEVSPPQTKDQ
Test [11] addresses T1, Ubiquitin carboxyl-terminal hydrolase 4 (Homo sapiens). Put plainly: Binding affinity to human USP4 after 1 hr by SDS-PAGE analysis.
For the next test, the system named is RBL-2H3. Put plainly: Binding affinity to USP5 in rat RBL2H3 cell extracts at 1 to 100 uM by SDS-PAGE analysis. The class given is cell-free.
Test [12] deals with T2, Ubiquitin carboxyl-terminal hydrolase 5 (Homo sapiens). Put plainly: Inhibition of wild type human USP5 expressed in Escherichia coli BL21(DE3) using K48-linked tetraubiquitin as substrate assessed as substrate hydrolysis at 5 to 50 uM after 15 mins by SDS-PAGE analysis.
Test [13] concerns the target Ubiquitin carboxyl-terminal hydrolase isozyme L1 (Homo sapiens) (UniProt P09936). Kind of test: Binding affinity to human UCH-L1 after 1 hr by SDS-PAGE analysis.

`Cc1c(C)c(-c2ccc(O)cc2)c(O)c(O)c1-c1ccc(O)cc1`: the inhibition entry in [1], in test [2], in [3] and in test [5] was “Active” throughout. Besides, the result in test [4] was Active.

With `O=C(CCCC[C@@H]1SC[C@@H]2NC(=O)N[C@@H]21)NCCCCCCn1cc(COc2ccccc2)nn1`, in test [6], the result was inactive.

For the compound `CCCC[C@@H](C=O)NC(=O)[C@H](CC(C)C)NC(=O)[C@H](CC(C)C)NC(C)=O` (Ac-Leu-Leu-[Nle]-aldehyde), the inhibition entry in [7] was “inactive”.

By IC50 is commonly meant the concentration that gives 50% inhibition. Read a high IC50 as weaker potency in that assay. On to `CCC[C@H](NC(=O)/C(C#N)=C/c1cccc(Br)n1)c1ccccc1`, for which the IC50 in [8], in [9] and in test [10] was 3 µM in each case.

As for `COc1ccc(C(=O)ONC(=O)CNC(=O)[C@H](Cc2ccccc2)NC(=O)OCc2ccccc2)cc1`, in [7], the inhibition entry is “inactive”.

In the case of `Cc1c(C)c(-c2ccc(OCc3cn(CCCCCCNC(=O)CCCC[C@@H]4SC[C@@H]5NC(=O)N[C@@H]54)nn3)cc2)c(O)c(O)c1-c1ccc(O)cc1`, the inhibition entry in [11] and in [12] was “Active” each time. Also, the result (with RBL-2H3; in test [6]) was Active. The inhibition result in test [13] was “inactive”.

Consider `CC(C)C[C@H](NC(=O)OCc1ccccc1)C(=O)N[C@H](C=O)Cc1ccccc1` (Cbz-Leu-Phe-aldehyde), for which, in test [7], the inhibition entry is “inactive”.
